This passage reports IC50 results from US9403803B2, “Indole-3-carboxamides as kinase inhibitors” (Allergan, Inc., priority 2014, dated 2016).

Structures are written as SMILES.

Assay [1] deals with PDGFRβ kinase, purified cytoplasmic domain PDGFR-b protein (Homo sapiens (Human), UniProt P09619). Kind of assay: PDGFRβ Kinase Assay. The format is biochemical. The following applies: 36 μM ATP, poly-Glu-Tyr (4:1) substrate, 60 minute incubation at 30° C. On the procedure:
(§1) Biochemical PDGFRβ kinase assays were performed in 96 well microtiter plates that were coated overnight with 75 μg of poly-Glu-Tyr (4:1) in 10 mM Phosphate Buffered Saline (PBS), pH 7.4. The coated plates were washed with 2 mls per well PBS+0.05% Tween-20 (PBS-T), blocked by incubation with PBS containing 1% BSA, then washed with 2 mls per well PBS-T prior to starting the reaction. Reactions were carried out in 100 μL reaction volumes containing 36 μM ATP in kinase buffer (50 mM Hepes buffer pH 7.4, 20 mM MgCl2, 0.1 mM MnCl2 and 0.2 mM Na3VO4). Test compounds were reconstituted in 100% DMSO and added to the reaction to give a final DMSO concentration of 5%. Reactions were initiated by the addition 20 ul per well of kinase buffer containing 200-300 ng purified cytoplasmic domain PDGFR-b protein (Millipore). Following a 60 minute incubation at 30° C., the reactions were washed 2 mls per well PBS-T. 100 μl of a monoclonal anti-phosphotyrosine antibody-peroxidase conjugate diluted 1:10,000 in PBS-T was added to the wells for 30 minutes. Following a 2 mls per well wash with PBS-Tween-20, 100 μl of O-Phenylenediamine Dihydrochloride in phosphate-citrate buffer, containing urea hydrogen peroxide, was added to the wells for 7-10 minutes as a colorimetric substrate for the peroxidase. The reaction was terminated by the addition of 100 μl of 2.5N H2SO4 to each well and read using a microplate ELISA reader set at 492 nm. IC50 values for compound inhibition were calculated directly from graphs of optical density (arbitrary units) versus compound concentration following subtraction of blank values.

Assay [2] concerns the target VEGFR2 (KDR) kinase, purified cytoplasmic domain KDR protein (Homo sapiens (Human), UniProt P35968). Kind of assay: VEGFR2 Kinase Assay. Format: biochemical. The following applies: 2.7 μM ATP, poly-Glu-Tyr (4:1) substrate, 15 minute incubation at 30° C. On the procedure: as §1, with “KDR” for “PDGFRβ”, “μg/well” for “μg”, “2.7” for “36”, “KDR” for “PDGFR-b”, “(BPS Bioscience, San Diego, Calif.).” for “(Millipore).”, “15” for “60”

Sequence of PDGFRβ kinase, purified cytoplasmic domain PDGFR-b protein (P09619 554-1106): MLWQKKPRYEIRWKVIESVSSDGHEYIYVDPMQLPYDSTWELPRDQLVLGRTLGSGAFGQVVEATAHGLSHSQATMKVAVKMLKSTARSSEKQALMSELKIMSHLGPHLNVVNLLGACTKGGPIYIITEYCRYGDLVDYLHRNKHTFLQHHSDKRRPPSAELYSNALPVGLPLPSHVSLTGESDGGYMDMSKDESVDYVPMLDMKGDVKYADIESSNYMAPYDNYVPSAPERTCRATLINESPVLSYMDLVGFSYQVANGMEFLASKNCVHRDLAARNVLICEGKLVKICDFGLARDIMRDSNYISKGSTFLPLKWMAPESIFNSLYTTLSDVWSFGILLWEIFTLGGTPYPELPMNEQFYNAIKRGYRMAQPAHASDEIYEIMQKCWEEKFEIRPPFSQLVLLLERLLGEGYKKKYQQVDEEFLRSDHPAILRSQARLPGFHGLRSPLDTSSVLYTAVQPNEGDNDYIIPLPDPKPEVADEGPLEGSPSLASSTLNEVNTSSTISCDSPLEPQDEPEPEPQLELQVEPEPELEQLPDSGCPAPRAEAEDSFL
Sequence of VEGFR2 (KDR) kinase, purified cytoplasmic domain KDR protein (P35968 786-1356, species assumed): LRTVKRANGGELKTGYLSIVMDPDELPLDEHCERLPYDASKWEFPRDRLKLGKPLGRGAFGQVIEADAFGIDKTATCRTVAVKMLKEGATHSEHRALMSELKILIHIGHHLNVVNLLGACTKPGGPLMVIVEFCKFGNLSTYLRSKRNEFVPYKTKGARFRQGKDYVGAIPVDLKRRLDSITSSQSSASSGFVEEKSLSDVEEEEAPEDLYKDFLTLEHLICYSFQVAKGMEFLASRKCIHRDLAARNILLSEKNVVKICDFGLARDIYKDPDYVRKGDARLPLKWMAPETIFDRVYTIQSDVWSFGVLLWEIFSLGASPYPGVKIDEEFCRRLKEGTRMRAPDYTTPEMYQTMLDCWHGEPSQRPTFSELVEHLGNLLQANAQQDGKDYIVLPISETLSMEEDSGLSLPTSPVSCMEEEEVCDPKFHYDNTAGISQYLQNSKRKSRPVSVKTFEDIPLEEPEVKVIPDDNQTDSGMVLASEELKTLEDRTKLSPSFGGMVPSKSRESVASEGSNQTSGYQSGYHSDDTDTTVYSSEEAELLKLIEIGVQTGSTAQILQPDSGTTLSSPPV

As usually defined, the IC50 is the concentration that gives 50% inhibition. Read a high IC50 as a need for much substance. On to `Cc1cccc(NC(=O)Nc2ccc(-c3[nH]c4ccccc4c3C(N)=O)cc2)c1` [Compound 1, 2-[4-({[(3-methylphenyl)amino]carbonyl}amino)phenyl]-1H-indole-3-carboxamide], for which the figures for the half-maximal inhibitory concentration (IC50) in assay [1] and in assay [2] were 0.14 µM and 0.013 µM, respectively.

As for `NC(=O)c1c(-c2ccc(NC(=O)Nc3cccc(C(F)(F)F)c3)cc2)[nH]c2ccccc12` [Compound 2, 2-{4-[({[3-(trifluoromethyl)phenyl]amino}carbonyl)amino]phenyl}-1H-indole-3-carboxamide], the IC50 in assay [1] was 0.061 µM; in assay [2], 0.007 µM.

With `Cc1ccc(F)c(NC(=O)Nc2ccc(-c3[nH]c4ccccc4c3C(N)=O)cc2)c1` [Compound 3, 2-[4-({[(2-fluoro-5-methylphenyl)amino]carbonyl}amino)phenyl]-1H-indole-3-carboxamide], the IC50 was determined as 0.267 µM in assay [1] and 0.017 µM in assay [2].

Regarding `CCc1cccc(NC(=O)Nc2ccc(-c3[nH]c4ccccc4c3C(N)=O)cc2)c1` [Compound 4, 2-[4-({[(3-ethylphenyl)amino]carbonyl}amino)phenyl]-1H-indole-3-carboxamide], the figures for the half-inhibitory concentration (IC50) in assay [1] and in assay [2] were 0.037 µM and 0.007 µM, respectively.

On to `Cc1ccoc1C(=O)Nc1ccc(-c2[nH]c3ccccc3c2C(N)=O)cc1` [Compound 5, 2-{4-[(3-methyl-2-furoyl)amino]phenyl}-1H-indole-3-carboxamide], for which the concentration for half-maximal inhibition (IC50) in assay [2] was > 10 µM.

On to `Cc1ccc(F)c(C(=O)Nc2ccc(-c3[nH]c4ccccc4c3C(N)=O)cc2)c1` [Compound 6, 2-{4-[(2-fluoro-5-methylbenzoyl)amino]phenyl}-1H-indole-3-carboxamide], for which, in assay [2], the 50% inhibitory concentration (IC50) was > 10 µM.

As to `Cc1cccc(NC(=O)Nc2cccc(-c3[nH]c4ccccc4c3C(N)=O)c2)c1` [Compound 7, 2-[3-({[(3-methylphenyl)amino]carbonyl}amino)phenyl]-1H-indole-3-carboxamide], in assay [2], the IC50 is > 10 µM.

With `NC(=O)c1c(-c2cccc(NC(=O)Nc3cccc(C(F)(F)F)c3)c2)[nH]c2ccccc12` [Compound 8, 2-{3-[({[3-(trifluoromethyl)phenyl]amino}carbonyl)amino]phenyl}-1H-indole-3-carboxamide], the concentration for half-maximal inhibition (IC50) in assay [2] is > 10 µM.

As to `Cc1ccoc1C(=O)Nc1cccc(-c2[nH]c3ccccc3c2C(N)=O)c1` [Compound 9, 2-{3-[(3-methyl-2-furoyl)amino]phenyl}-1H-indole-3-carboxamide], the half-inhibitory concentration (IC50) in assay [1] and in assay [2] was > 10 µM throughout.

Take `Cc1ccc(F)c(C(=O)Nc2cccc(-c3[nH]c4ccccc4c3C(N)=O)c2)c1` [Compound 10, 2-{3-[(2-fluoro-5-methylbenzoyl)amino]phenyl}-1H-indole-3-carboxamide]: the IC50 in assay [2] is > 10 µM.
